# Data published in patent publication US20250002506A1, “IMPROVED PROCESS FOR THE PREPARATION OF LURBINECTEDIN AND ITS MORPHS THEREOF” (RK Pharma Inc., priority 2021, published 2025).
# Assays:
# [1] = Stability study: storage in a sealed reagent bottle at -20° C for three months (description, water content, HPLC purity, XRPD); format: physicochemical; design: HPLC impurity at RRT 0.07 / HPLC impurity at RRT 0.20 / HPLC impurity at RRT 0.85 / HPLC impurity at RRT 0.98 / HPLC impurity at RRT 1.02 / HPLC impurity at RRT 1.07 / HPLC impurity at RRT 1.17 / HPLC impurity at RRT 1.23 / HPLC impurity at RRT 1.31 / HPLC impurity at RRT 1.38 / HPLC impurity at RRT 1.41: unit not given here
# Description: An appropriate amount of the sample of the amorphous as well as RK-1 polymorphic form of Lurbinectedin obtained in examples 5 to 9 was placed in a reagent bottle at-20° C. under a sealed condition for the period of three months to perform a stability test. X-ray powder diffraction pattern, HPLC purity as well as DSC Chromatogram of amorphous as well as RK-1 polymorphic form of Lurbinectedin was evaluated again after storing for period of 3 months. Result of the stability study of both amorphous (Obtained in Example 5) as well as RK-1 polymorphic form of Lurbinectedin (Obtained in Example 6) has been tabulated in Tables 1-2 given below. […] Characteristic peaks in the XRPD pattern and DSC chromatogram of RK-1 polymorphic form of Lurbinectedin obtained initially as well as after storing for the period of three months have been tabulated in Table 3 given below.
# [2] = Chemical stability under long term and accelerated storage conditions; format: physicochemical
# [3] = at 3 months (A/3M), -20° C, sealed
"HPLC impurity at RRT 0.07 [1, 3]","HPLC impurity at RRT 0.20 [1, 3]","HPLC impurity at RRT 0.85 [1, 3]","HPLC impurity at RRT 0.98 [1, 3]","HPLC impurity at RRT 1.02 [1, 3]","HPLC impurity at RRT 1.07 [1, 3]","HPLC impurity at RRT 1.31 [1, 3]","HPLC impurity at RRT 1.38 [1, 3]","HPLC impurity at RRT 1.41 [1, 3]","HPLC purity, LRBN [1, 3] [%]","Description ([1]; at 3 months, -20° C, sealed)","Water content ([1]; at 3 months, -20° C, sealed) [%]",Description ([1]; initial),HPLC impurity at RRT 0.20 ([1]; initial),HPLC impurity at RRT 0.98 ([1]; initial),HPLC impurity at RRT 1.07 ([1]; initial),HPLC impurity at RRT 1.17 ([1]; initial),HPLC impurity at RRT 1.23 ([1]; initial),HPLC impurity at RRT 1.31 ([1]; initial),"HPLC purity, LRBN ([1]; initial) [%]",SMILES,other results
0.06,0.02,0.01,0.03,0.05,0.02,0.02,0.01,0.01,99.77,Off white,9.91,Off white,0.02,0.03,0.02,0.04,0.03,0.02,99.81,"COc1ccc2[nH]c3c(c2c1)CCN[C@]31CS[C@@H]2c3c(OC(C)=O)c(C)c4c(c3[C@H](COC1=O)N1[C@@H]2[C@H]2c3c(cc(C)c(OC)c3O)C[C@@H]([C@@H]1O)N2C)OCO4 [Amorphous form of Lurbinectedin, Lurbinectedin]","Water content ([1]; initial): 9.67%; Stability on storage (XRPD pattern after three months same as obtained initially) ([1]; -20° C, sealed): stable on storage"
–,–,–,–,–,–,–,–,–,–,–,–,–,–,–,–,–,–,–,–,"COc1ccc2[nH]c3c(c2c1)CCN[C@]31CS[C@@H]2c3c(OC(C)=O)c(C)c4c(c3[C@H](COC1=O)N1[C@@H]2[C@H]2c3c(cc(C)c(OC)c3O)C[C@@H]([C@@H]1O)N2C)OCO4 [Pure Lurbinectedin, Lurbinectedin]",Period for which chemically stable [2]: about 6 months
0.06,0.02,0.01,0.03,0.05,0.02,0.02,0.01,0.01,99.77,Off white,10.1,Off white,0.03,0.03,0.02,0.04,0.03,0.02,99.86,"COc1ccc2[nH]c3c(c2c1)CCN[C@]31CS[C@@H]2c3c(OC(C)=O)c(C)c4c(c3[C@H](COC1=O)N1[C@@H]2[C@H]2c3c(cc(C)c(OC)c3O)C[C@@H]([C@@H]1O)N2C)OCO4 [polymorphic form RK-1 of Lurbinectedin, Lurbinectedin]","Description ([1]; after 1 month, -20° C, sealed): Off white powder; Description ([1]; at 3 months, -20° C, sealed, listed as RK-1 polymorphic form of Lurbinectedin): Off white powder; Water content ([1]; initial): 9.69%; Description ([1]; initial, listed as RK-1 polymorphic form of Lurbinectedin): Off white powder; Stability on storage (XRPD pattern after three months same as obtained initially) ([1]; -20° C, sealed): stable on storage"
